This note sets out measurements from paper PMC6934184, “Selective DNA-PKcs inhibition extends the therapeutic index of localized radiotherapy and chemotherapy” (The Journal of Clinical Investigation, 2019).

Structures are written as SMILES.

A word on the inhibition: it is the percentage by which the read-out fell short of the control. The low end stands for a weak effect, the high end for a strong effect.

The test concerns the target T1, PTK6 (Brk) (Homo sapiens, UniProt Q13882).
T1 construct: purchased Thermo Fisher Scientific (Life Technologies) SelectScreen
Put plainly: SelectScreen Z'LYTE. It counts as biochemical. The method in brief: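 NU5455 was profiled across the SelectScreen Broad panel of kinase activity and binding assays. Z'LYTE reactions such as CSF1R ran at apparent Km ATP, while the Adapta CAMK1 assay used ATP listed as 10. Values are given as percent.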

T1 sequence (Q13882 whole entry): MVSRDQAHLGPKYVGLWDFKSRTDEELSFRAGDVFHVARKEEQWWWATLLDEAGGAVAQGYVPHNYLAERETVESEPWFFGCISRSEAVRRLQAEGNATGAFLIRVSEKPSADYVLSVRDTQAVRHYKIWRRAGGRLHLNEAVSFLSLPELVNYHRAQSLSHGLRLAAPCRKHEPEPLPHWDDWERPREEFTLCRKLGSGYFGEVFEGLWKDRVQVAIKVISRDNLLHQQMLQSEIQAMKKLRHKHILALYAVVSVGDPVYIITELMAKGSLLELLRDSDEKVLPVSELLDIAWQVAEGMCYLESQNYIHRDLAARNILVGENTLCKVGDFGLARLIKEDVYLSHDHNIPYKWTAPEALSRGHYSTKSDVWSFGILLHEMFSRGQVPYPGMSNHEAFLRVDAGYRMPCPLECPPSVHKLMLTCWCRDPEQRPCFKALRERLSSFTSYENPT

The molecule `CN(C(=O)CN1CCOCC1)c1ccc2sc3c(-c4cccc5c(=O)cc(N6CC7CCC(C6)O7)oc45)cccc3c2c1` [NU5455] registered an inhibition at 1 µM of 0.7%.
